Measured values from ChEMBL document CHEMBL1138992, “New benzimidazoles as thrombopoietin receptor agonists” (Bioorg Med Chem Lett, 2006).

What follows are molecules tested against T1, Thrombopoietin receptor (Homo sapiens, UniProt P40238) (assay: (§1) Agonist activity as induced proliferation in Ba/F3-hTpoR murine lymphocyte expressing human TPOR).
T1 sequence (P40238 whole entry): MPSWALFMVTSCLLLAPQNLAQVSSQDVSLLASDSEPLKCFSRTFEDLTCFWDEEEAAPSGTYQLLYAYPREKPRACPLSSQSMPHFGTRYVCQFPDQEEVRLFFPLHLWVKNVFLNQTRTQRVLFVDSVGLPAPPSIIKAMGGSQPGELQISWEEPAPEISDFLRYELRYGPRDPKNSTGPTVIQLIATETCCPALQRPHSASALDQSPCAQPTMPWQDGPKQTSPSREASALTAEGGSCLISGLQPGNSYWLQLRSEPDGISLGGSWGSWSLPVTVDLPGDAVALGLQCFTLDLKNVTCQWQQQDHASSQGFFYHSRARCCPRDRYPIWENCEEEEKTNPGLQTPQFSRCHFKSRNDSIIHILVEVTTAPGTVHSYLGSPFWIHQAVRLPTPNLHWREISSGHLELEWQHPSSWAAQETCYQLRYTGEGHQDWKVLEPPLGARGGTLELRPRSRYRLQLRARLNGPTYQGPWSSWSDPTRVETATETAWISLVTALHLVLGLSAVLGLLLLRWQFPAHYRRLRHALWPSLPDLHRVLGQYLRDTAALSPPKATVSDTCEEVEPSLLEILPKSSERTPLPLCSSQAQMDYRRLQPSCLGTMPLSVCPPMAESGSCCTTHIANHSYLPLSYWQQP
Assay type: functional; call rule not given here

Question: For Cc1ccc(-c2cccc(-c3nc4c(/C=C5\SC(=S)NC5=O)cccc4[nH]3)n2)cc1C, which EC50 is on record?
Answer: Not Active

Question: How did the EC50 turn out when CCOC(=O)/C(C)=C/c1ccc2[nH]c(-c3cccc(-c4ccc(C(C)(C)C)cc4)n3)nc2c1 was run?
Answer: Not Active

Question: C/C(=C\c1cccc2[nH]c(-c3cccc(-c4ccc(C)c(C)c4)n3)nc12)C(=O)O was tested. Which EC50 did it give?
Answer: Not Active

Question: Which EC50 does the source give for Cc1ccc(-c2cccc(-c3nc4c(C=C(C(=O)O)C(=O)O)cccc4[nH]3)n2)cc1C here?
Answer: Not Active

What follows are molecules tested against T2, Thrombopoietin receptor (Homo sapiens) (UniProt P40238) (assay: as §1).
T2 sequence (whole entry): T1 sequence (P40238 whole entry)
Assay type: functional

Question: How did the Efficacy turn out when CC(C)(C)c1ccc(-c2cccc(-c3nc4cc(/C=C5\SC(=S)NC5=O)ccc4[nH]3)c2)cc1 was run?
Answer: 137%

Question: Which Efficacy does the source give for CC(C)(C)c1ccc(-c2cccc(-c3nc4cc(/C=C5\SC(=S)NC5=O)ccc4[nH]3)n2)cc1 here?
Answer: 90%

Question: With CC(C)(C)c1ccc(-c2cccc(-c3nc4cc(CC(C(=O)O)C(=O)O)ccc4[nH]3)n2)cc1 as the molecule, how does the Efficacy read?
Answer: 13%

Question: Which Efficacy does the source give for C/C(=C\c1ccc2[nH]c(-c3cccc(-c4ccc(C(C)(C)C)cc4)n3)nc2c1)C(=O)O here?
Answer: 109%

Question: For Cc1ccc(-c2cccc(-c3nc4cc(/C=C5\SC(=S)NC5=O)ccc4[nH]3)n2)cc1C, which Efficacy is on record?
Answer: 73%

Question: Which Efficacy does the source give for CC(C)(C)c1ccc(-c2cccc(-c3nc4cc(/C=C5\SC(=S)NC5=O)ccc4[nH]3)c2O)cc1 here?
Answer: 134%

Question: How did the Efficacy turn out when Cc1ccc(-c2ccc(-c3nc4cc(/C=C5\SC(=S)NC5=O)ccc4[nH]3)s2)cc1C was run?
Answer: 117%

Question: How did the Efficacy turn out when CC(C)(C)c1ccc(-c2ccc(-c3nc4cc(/C=C5\SC(=S)NC5=O)ccc4[nH]3)o2)cc1 was run?
Answer: 142%

Question: Cc1ccc(-c2csc(-c3nc4cc(/C=C5\SC(=S)NC5=O)ccc4[nH]3)c2)cc1C was tested. Which Efficacy did it give?
Answer: 123%

Question: With O=C1NC(=S)S/C1=C\c1ccc2[nH]c(-c3cccc(-c4ccc(Cl)c(Cl)c4)n3)nc2c1 as the molecule, how does the Efficacy read?
Answer: 19%
